Laboratory results from ChEMBL document CHEMBL3227964 (J Med Chem, 1979).
The source made the active and inactive calls. No cut-off for these calls is given here.

How the values were obtained:
Escherichia coli [1] = test: Antimicrobial activity against Escherichia coli AB1157 assessed as reduction in colony formation at 1 mM; assay type: organism-based; settings: in vivo, 1000 µM
Escherichia coli [2] = test: Induction of sensitization to irradiation in Escherichia coli AB1157 under hypoxic condition assessed as reduction in colony formation at 1 mM measured after irradiation; assay type: functional, organism-based
Escherichia coli [3] = test: Induction of sensitization to irradiation in Escherichia coli AB1157 under oxic condition assessed as reduction in colony formation at 1 mM measured after irradiation; assay type: organism-based; settings: in vivo, 1000 µM

## O=[N+]([O-])c1ncn(CCO)c1Cl
Escherichia coli [1]
  Activity: Non-toxic
Escherichia coli [2]
  Activity: Active
Escherichia coli [3]
  Activity: Toxic

## COCC(O)Cn1ccnc1[N+](=O)[O-] (configuration not stated)
Escherichia coli [2]
  Activity: Active

## O=[N+]([O-])c1cnc2n1CCO2
Escherichia coli [1]
  Activity: Non-toxic
Escherichia coli [2]
  Activity: Active
Escherichia coli [3]
  Activity: Toxic
